ChEMBL document CHEMBL5543144, “Discovery of a Novel Potent Tetrazole Antifungal Candidate with High Selectivity and Broad Spectrum” (J Med Chem, 2024)
≈ marks a conversion by molar mass, not a printed value. Calls of active or inactive are those of the source. The rule behind the calls is not given here.

Tests used:
[1] = test system: Candida tropicalis; assay: Antifungal activity against Candida tropicalis 2718 assessed as inhibition of fungal growth incubated for 24 hrs by CLSI protocol based microbroth dilution method; assay type: functional
[2] = test system: [Candida] auris; assay: Antifungal activity against fluconazole resistant Candida auris BS12372 assessed as inhibition of fungal growth incubated for 48 hrs by CLSI protocol based microbroth dilution method; assay type: functional; conditions: Candidozyma auris
[3] = test system: Pichia kudriavzevii; assay: Antifungal activity against Candida krusei 4946 assessed as inhibition of fungal growth incubated for 24 hrs by CLSI protocol based microbroth dilution method; assay type: functional
[4] = test system: Candida albicans; assay: Antifungal activity against Candida albicans SC5314 assessed as inhibition of fungal growth incubated for 24 hrs by CLSI protocol based microbroth dilution method; assay type: functional
[5] = test system: Cell membrane; assay: Disruption of cell membrane integrity in Candida albicans SC5314 assessed as increase in increase in red fluorescence at 0.5 ug/ml incubated for 8 hrs by PI staining based fluorescence microscopic analysis; conditions: dose 0.5 µg/ml
[6] = biological target: T1, Lanosterol 14-alpha demethylase (Candida albicans (strain SC5314 / ATCC MYA-2876) (Yeast), UniProt P10613); assay: Inhibition of CYP51 in Candida albicans SC5314 assessed as ergosterol level at 0.5 ug/ml incubated for 8 hrs by GC-MS analysis (reference value: 79.31%); design: scale not given: the % may be the effect or the level left; conditions: at 0.5 µg/mL
[7] = test system: Aspergillus fumigatus; assay: Antifungal activity against Aspergillus fumigatus 7544 assessed as inhibition of fungal growth incubated for 48 hrs by CLSI protocol based microbroth dilution method; assay type: functional
[8] = test system: Candida albicans; assay: Antifungal activity against Candida albicans SC5314 infected in ICR mouse model assessed as fungal burden in kidney at 1 mg/kg/day, po pre-infected with fungi for 2 hrs followed by compound administration and measured after 48 hrs (reference value: 3.89 Log10CFU/g); assay type: functional
[9] = test system: [Candida] auris; assay: Antifungal activity against fluconazole resistant Candida auris 887 assessed as inhibition of fungal growth incubated for 48 hrs by CLSI protocol based microbroth dilution method; assay type: functional; conditions: Candidozyma auris
[10] = test system: [Candida] auris; assay: Antifungal activity against fluconazole resistant Candida auris D12 assessed as inhibition of fungal growth incubated for 48 hrs by CLSI protocol based microbroth dilution method; assay type: functional; conditions: Candidozyma auris
[11] = test system: [Candida] auris; assay: Antifungal activity against fluconazole resistant Candida auris 789 assessed as inhibition of fungal growth incubated for 48 hrs by CLSI protocol based microbroth dilution method; assay type: functional; conditions: Candidozyma auris
[12] = test system: Candida parapsilosis; assay: Antifungal activity against Candida parapsilosis 22019 assessed as inhibition of fungal growth incubated for 24 hrs by CLSI protocol based microbroth dilution method; assay type: functional; conditions: Lodderomyces parapsilosis
[13] = test system: [Candida] auris; assay: Antifungal activity against fluconazole resistant Candida auris 791 assessed as inhibition of fungal growth incubated for 48 hrs by CLSI protocol based microbroth dilution method; assay type: functional; conditions: Candidozyma auris
[14] = test system: Erythrocyte; assay: Hemolytic activity in rabbit RBC assessed as hemolysis at 64 ug/ml incubated for 1 hrs by absorbance based assay; assay type: toxicity, cell-based, Oryctolagus cuniculus; conditions: dose 64 µg/ml
[15] = test system: Nakaseomyces glabratus; assay: Antifungal activity against Candida glabrata 537 assessed as inhibition of fungal growth incubated for 48 hrs by CLSI protocol based microbroth dilution method; assay type: functional
[16] = test system: Cryptococcus neoformans; assay: Antifungal activity against Cryptococcus neoformans H99 assessed as inhibition of fungal growth incubated for 72 hrs by CLSI protocol based microbroth dilution method; assay type: functional
[17] = test system: [Candida] auris; assay: Antifungal activity against fluconazole resistant Candida auris 888 assessed as inhibition of fungal growth incubated for 48 hrs by CLSI protocol based microbroth dilution method; assay type: functional; conditions: Candidozyma auris
[18] = test system: Pichia kudriavzevii; assay: Antifungal activity against Candida krusei 4946 assessed as inhibition of fungal growth at 0.125 ug/ml incubated for 24 hrs by plate reader analysis; assay type: functional, organism-based; conditions: dose 0.125 µg/ml
[19] = test system: Cryptococcus neoformans; assay: Antifungal activity against Cryptococcus neoformans H99 assessed as inhibition of fungal growth at 0.125 ug/ml incubated for 48 hrs by plate reader analysis; assay type: functional, organism-based; conditions: dose 0.125 µg/ml
[20] = MRT (0 to t) in male ICR (CD-1) mouse at 10 mg/kg, po by LC-MS/MS analysis; assay type: ADME, organism-based; conditions: in vivo
[21] = Tmax in male ICR (CD-1) mouse at 10 mg/kg, po by LC-MS/MS analysis; assay type: ADME, organism-based; conditions: in vivo
[22] = Half-life in male ICR (CD-1) mouse at 5 mg/kg, iv by LC-MS/MS analysis; assay type: ADME, organism-based; conditions: in vivo
[23] = test system: Candida albicans; assay: Antifungal activity in Candida albicans SC5314 assessed as inhibition of fungal growth incubated for 4 days by induction of resistance assay; assay type: functional; conditions: SC5314, 96 h, time 4 day
[24] = Oral bioavailability in male ICR (CD-1) mouse at 10 mg/kg by LC-MS//MS analysis; assay type: ADME, organism-based; conditions: in vivo
[25] = MRT (0 to t) in male ICR (CD-1) mouse at 5 mg/kg, iv by LC-MS/MS analysis; assay type: ADME, organism-based; conditions: in vivo
[26] = test system: Candida albicans; assay: Inhibition of biofilm formation in Candida albicans SC5314 incubated for 24 hrs by XTT reduction assay; assay type: functional, organism-based; conditions: dose 0.008-4 µg/ml
[27] = test system: Candida albicans; assay: Antifungal activity against Candida albicans SC5314 infected in ICR mouse model assessed as fungal burden in kidney at 5 mg/kg/day, po pre-infected with fungi for 2 hrs followed by compound administration and measured after 48 hrs (reference value: 3.89 Log10CFU/g); assay type: functional
[28] = test system: Candida albicans; assay: Antifungal activity against Candida albicans SC5314 assessed as inhibition of fungal growth at 0.0156 ug/ml incubated for 24 hrs by plate reader analysis; assay type: functional, organism-based; conditions: dose 0.0156 µg/ml
[29] = Volume of distribution at steady state in male ICR (CD-1) mouse at 5 mg/kg, iv by LC-MS/MS analysis; assay type: ADME, organism-based; conditions: in vivo, read-out: Vdss
[30] = test system: Candida albicans; assay: Antifungal activity against Candida albicans SC5314 infected in ICR mouse model assessed as reduction in fungal burden in kidney pre-infected with fungi for 2 hrs followed by oral administration of compound and measured after 48 hrs; assay type: functional, organism-based; conditions: dose 1-5 mg/kg/day
[31] = biological target: T1, Lanosterol 14-alpha demethylase; assay: Inhibition of CYP51 in Candida albicans SC5314 assessed as increase in obtusifoliol level at 0.008 ug/ml incubated for 8 hrs by GC-MS analysis relative to control; design: scale not given: the % may be the effect or the level left; conditions: at 0.008 µg/mL
[32] = biological target: T1, Lanosterol 14-alpha demethylase; assay: Inhibition of CYP51 in Candida albicans SC5314 assessed as increase in eburicol level at 0.008 ug/ml incubated for 8 hrs by GC-MS analysis relative to control; design: scale not given: the % may be the effect or the level left; conditions: at 0.008 µg/mL
[33] = Cmax in male ICR (CD-1) mouse at 10 mg/kg, po by LC-MS/MS analysis; assay type: ADME, organism-based; conditions: in vivo
[34] = test system: Candida albicans; assay: Antifungal activity in Candida albicans SC5314 assessed as inhibition of fungal growth incubated for 17 days by induction of resistance assay; assay type: functional; conditions: SC5314, 408 h, time 17 day
[35] = test system: Nakaseomyces glabratus; assay: Antifungal activity against Candida glabrata 537 assessed as inhibition of fungal growth at 0.25 ug/ml incubated for 24 hrs by plate reader analysis; assay type: functional, organism-based; conditions: dose 0.25 µg/ml
[36] = test system: Candida albicans; assay: Antifungal activity against Candida albicans SC5314 infected in ICR mouse model assessed as median survival time at 5 mg/kg/day, po pre-infected with fungi for 2 hrs followed by compound administration and measured after 48 hrs (reference value: 3.5 days); assay type: functional
[37] = test system: Candida albicans; assay: Antifungal activity against Candida albicans SC5314 infected in ICR mouse model assessed as median survival time at 1 mg/kg/day, po pre-infected with fungi for 2 hrs followed by compound administration and measured after 48 hrs (reference value: 3.5 days); assay type: functional
[38] = test system: Candida tropicalis; assay: Antifungal activity against Candida tropicalis 2718 assessed as inhibition of fungal growth at 32 ug/ml incubated for 24 hrs by plate reader analysis; assay type: functional, organism-based; conditions: dose 32.0 µg/ml
[39] = test system: Candida albicans; assay: Inhibition of biofilm formation in Candida albicans SC5314 at 0.008 ug/ml incubated for 24 hrs by XTT reduction assay relative to control; assay type: functional
[40] = AUC (0 to t) in male ICR (CD-1) mouse at 5 mg/kg, iv by LC-MS/MS analysis; assay type: ADME, organism-based; conditions: in vivo
[41] = AUC (0 to t) in male ICR (CD-1) mouse at 10 mg/kg, po by LC-MS/MS analysis; assay type: ADME, organism-based; conditions: in vivo
[42] = Half-life in male ICR (CD-1) mouse at 10 mg/kg, po by LC-MS/MS analysis; assay type: ADME, organism-based; conditions: in vivo
[43] = Clearance in male ICR (CD-1) mouse at 5 mg/kg, iv by LC-MS/MS analysis; assay type: ADME, organism-based; conditions: in vivo
[44] = biological target: T1, Lanosterol 14-alpha demethylase; assay: Inhibition of CYP51 in Candida albicans SC5314 assessed as decrease in ergosterol level at 0.008 ug/ml incubated for 8 hrs by GC-MS analysis; conditions: at 0.008 µg/mL

T1 sequence (P10613 whole entry): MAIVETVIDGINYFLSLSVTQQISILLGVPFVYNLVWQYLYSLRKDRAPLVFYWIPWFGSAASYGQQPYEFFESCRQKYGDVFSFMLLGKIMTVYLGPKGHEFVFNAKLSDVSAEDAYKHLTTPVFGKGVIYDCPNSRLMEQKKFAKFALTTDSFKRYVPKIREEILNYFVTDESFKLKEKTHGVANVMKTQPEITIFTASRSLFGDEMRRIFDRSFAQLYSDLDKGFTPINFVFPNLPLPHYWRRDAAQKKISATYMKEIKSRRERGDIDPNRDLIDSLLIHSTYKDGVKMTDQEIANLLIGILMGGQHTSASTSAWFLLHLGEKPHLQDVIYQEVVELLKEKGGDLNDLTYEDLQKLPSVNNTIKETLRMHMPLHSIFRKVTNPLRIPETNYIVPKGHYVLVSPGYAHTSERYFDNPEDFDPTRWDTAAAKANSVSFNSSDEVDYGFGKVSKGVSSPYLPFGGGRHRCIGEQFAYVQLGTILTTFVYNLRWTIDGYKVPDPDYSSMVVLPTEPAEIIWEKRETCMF

OC(Cn1cncn1)(Cn1cncn1)c1ccc(F)cc1F [FLUCONAZOLE]
MIC50 [1]: < 0.125 µg/mL
MIC50 [2]: > 64 µg/mL
MIC50 [3]: 8 µg/mL (≈ 26.1 µM)
MIC50 [4]: 0.125 µg/mL (≈ 0.408 µM)
Activity [5]: Active
Activity [6]: 10.61%
MIC50 [7]: > 64 µg/mL
Activity [8]: 2.41 log10CFU/g
MIC50 [9]: > 64 µg/mL
MIC50 [10]: > 64 µg/mL
MIC50 [11]: > 64 µg/mL
MIC50 [12]: 1 µg/mL (≈ 3.27 µM)
MIC50 [13]: > 64 µg/mL
Activity [14]: Non-Toxic
MIC50 [15]: 0.5 µg/mL (≈ 1.63 µM)
MIC50 [16]: 8 µg/mL (≈ 26.1 µM)
MIC50 [17]: > 64 µg/mL

C[C@@H](n1ccc2cc(Cl)ccc2c1=O)[C@](O)(Cn1cnnn1)c1ccc(F)cc1F
Activity [18]: Active
MIC50 [1]: < 0.008 µg/mL
Activity [19]: Active
MRT last [20]: 3.66 h
MIC50 [2]: < 0.125 µg/mL
Tmax [21]: 2 h
half-life [22]: 4.28 h
MIC [23]: 0.016 µg/mL (≈ 0.0371 µM)
bioavailability [24]: 36.8%
MRT last [25]: 3.27 h
inhibition [26]: Dose-Dependent Effect
Activity [27]: 2.25 log10CFU/g
MIC50 [3]: 0.031 µg/mL (≈ 0.0718 µM)
Activity [28]: Active
MIC50 [4]: < 0.008 µg/mL
Activity [5]: Active
Vd [29]: 1.23 L/kg
MIC50 [7]: 2 µg/mL (≈ 4.63 µM)
Activity [30]: Dose-Dependent Effect
Activity [8]: 2.92 log10CFU/g
MIC50 [9]: 0.5 µg/mL (≈ 1.16 µM)
Activity [31]: 19.33%
MIC50 [10]: < 0.125 µg/mL
Activity [32]: 24.85%
MIC50 [11]: 0.5 µg/mL (≈ 1.16 µM)
MIC50 [12]: < 0.008 µg/mL
Cmax [33]: 2630 ng/mL
MIC [34]: 0.125 µg/mL (≈ 0.289 µM)
Activity [35]: Active
MIC50 [13]: 1 µg/mL (≈ 2.32 µM)
MST [36]: 10 days
MST [37]: 8.5 days
Activity [38]: Active
inhibition at 0.008 µg/mL [39]: > 70%
AUC(0-t) [40]: 18500 ng·h/mL
AUC(0-t) [41]: 13600 ng·h/mL
half-life [42]: 6.71 h
Activity [14]: Non-Toxic
MIC50 [15]: < 0.008 µg/mL
MIC50 [16]: < 0.008 µg/mL
clearance [43]: 3.27 mL/min/kg
inhibition (INH) [44]: Active
MIC50 [17]: 0.25 µg/mL (≈ 0.579 µM)
